Results reported in US11377442B2, “Small molecule agonists and antagonists of NR2F6 activity” (ZANDER THERAPEUTICS, INC., priority 2016, dated 2022).
Read-outs that look alike come from different tables or passages of the source. Blank lines part the entries; values can stand above or below the compound they belong to.

What was measured:
Format in all cases: cell-based
NR2F6 = target: T1, NR2F6 (Homo sapiens, UniProt P10588); experiment: NR2F6 agonist screening, Firefly signal cmpd/DMSO
T1 construct: expressed in transfected cells; also transient transfection
T1 sequence (P10588 1-404): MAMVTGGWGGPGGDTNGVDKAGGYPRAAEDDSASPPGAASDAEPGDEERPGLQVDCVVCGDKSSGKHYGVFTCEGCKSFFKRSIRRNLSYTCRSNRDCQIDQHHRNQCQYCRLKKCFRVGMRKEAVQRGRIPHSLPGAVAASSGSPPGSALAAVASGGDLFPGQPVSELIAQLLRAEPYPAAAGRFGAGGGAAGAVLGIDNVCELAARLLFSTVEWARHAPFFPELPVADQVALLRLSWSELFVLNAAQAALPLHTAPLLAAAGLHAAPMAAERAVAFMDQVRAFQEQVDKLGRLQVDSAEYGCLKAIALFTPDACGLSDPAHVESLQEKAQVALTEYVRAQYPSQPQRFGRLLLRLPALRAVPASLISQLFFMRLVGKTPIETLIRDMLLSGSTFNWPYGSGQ

Renilla = Renilla signal in NR2F6 agonist screening, cmpd/DMSO; details: Renilla, F4
HEK293 pGL4 = experiment: Firefly_pGL signal, cmpd/DMSO (pGL4 control cells); details: Homo sapiens
NR2F6 LBD = target: T2, NR2F6 LBD (Homo sapiens, UniProt P10588); experiment: NR2F6 LBD transient transfection; details: LBD
T2 construct: expressed in transfected cells
T2 sequence (P10588 165-393 limits assumed): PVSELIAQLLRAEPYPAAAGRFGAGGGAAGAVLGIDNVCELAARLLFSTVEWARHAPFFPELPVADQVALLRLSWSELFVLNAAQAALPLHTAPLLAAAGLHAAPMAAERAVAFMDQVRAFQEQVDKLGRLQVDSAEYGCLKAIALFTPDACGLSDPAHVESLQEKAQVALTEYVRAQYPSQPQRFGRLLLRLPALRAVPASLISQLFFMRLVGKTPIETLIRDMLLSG
Outline: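 LBD-transfected cells treated at 40, 10, 2 and 0.5 μM (4 replicates); cytotoxicity measured in parallel, normalized to DMSO (0%) and zero signal (100%). Higher concentrations excluded where signal loss reflected toxicity.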

[1] = read-out: Renilla, F4, cmpd/DMSO (mean)
[2] = 1% FBS, read-out: Renilla, F4, 1% FBS, cmpd/DMSO (mean)
[3] = 10% FBS, read-out: Renilla, F4, 10% FBS, cmpd/DMSO (mean)
[4] = HEK293, 0.5 uM, pGL4, read-out: Firefly pGL4, cmpd/DMSO (mean)
[5] = HEK293, 2 uM, pGL4, read-out: Firefly pGL4, cmpd/DMSO (mean)
[6] = HEK293, 10 uM, pGL4, read-out: Firefly pGL4, cmpd/DMSO (mean)
[7] = HEK293, 40 uM, pGL4, read-out: Firefly pGL4, cmpd/DMSO (mean)
[8] = HEK293, pGL4, 1% FBS, 0.5 uM, read-out: Firefly, pGL4, 1% FBS, cmpd/DMSO (mean)
[9] = HEK293, pGL4, 1% FBS, 2 uM, read-out: Firefly, pGL4, 1% FBS, cmpd/DMSO (mean)
[10] = HEK293, pGL4, 1% FBS, 10 uM, read-out: Firefly, pGL4, 1% FBS, cmpd/DMSO (mean)
[11] = HEK293, pGL4, 1% FBS, 40 uM, read-out: Firefly, pGL4, 1% FBS, cmpd/DMSO (mean)
[12] = HEK293, pGL4, 10% FBS, 0.5 uM, read-out: Firefly, pGL4, 10% FBS, cmpd/DMSO (mean)
[13] = HEK293, pGL4, 10% FBS, 2 uM, read-out: Firefly, pGL4, 10% FBS, cmpd/DMSO (mean)
[14] = HEK293, pGL4, 10% FBS, 10 uM, read-out: Firefly, pGL4, 10% FBS, cmpd/DMSO (mean)
[15] = HEK293, pGL4, 10% FBS, 40 uM, read-out: Firefly, pGL4, 10% FBS, cmpd/DMSO (mean)

Firefly F4, cmpd/DMSO (mean) (NR2F6; 0.5 uM): 1.3
Firefly F4, cmpd/DMSO (mean) (NR2F6; 2 uM): 1.6
Firefly F4, cmpd/DMSO (mean) (NR2F6; 10 uM): 2.2
Firefly F4, cmpd/DMSO (mean) (NR2F6; 40 uM): 4.0
F4, Firefly/Renilla for S/B(F4) > 3 (NR2F6; 1% FBS, 40 uM): 2.2
Firefly, F4/pGL4 for S/B(F4) > 3 (NR2F6; 1% FBS, 40 uM): 2.6
F4, Firefly/Renilla for S/B(F4) > 3 (NR2F6; 10% FBS, 40 uM): 2.9
Firefly, F4/pGL4 for S/B(F4) > 3 (NR2F6; 10% FBS, 40 uM): 2.7
Firefly, F4, 1% FBS, cmpd/DMSO (mean) (NR2F6; 1% FBS, 0.5 uM): 1.5
Firefly, F4, 1% FBS, cmpd/DMSO (mean) (NR2F6; 1% FBS, 2 uM): 0.8
Firefly, F4, 1% FBS, cmpd/DMSO (mean) (NR2F6; 1% FBS, 10 uM): 1.4
Firefly, F4, 1% FBS, cmpd/DMSO (mean) (NR2F6; 1% FBS, 40 uM): 3.8
Firefly, F4, 10% FBS, cmpd/DMSO (mean) (NR2F6; 10% FBS, 0.5 uM): 0.8
Firefly, F4, 10% FBS, cmpd/DMSO (mean) (NR2F6; 10% FBS, 2 uM): 1.4
Firefly, F4, 10% FBS, cmpd/DMSO (mean) (NR2F6; 10% FBS, 10 uM): 1.5
Firefly, F4, 10% FBS, cmpd/DMSO (mean) (NR2F6; 10% FBS, 40 uM): 6.1
Firefly LBD, cmpd/DMSO (mean) (NR2F6 LBD; 0.5 uM): 0.9
Firefly LBD, cmpd/DMSO (mean) (NR2F6 LBD; 2 uM): 1.1
Firefly LBD, cmpd/DMSO (mean) (NR2F6 LBD; 10 uM): 2.2
Firefly LBD, cmpd/DMSO (mean) (NR2F6 LBD; 40 uM): 2.2
SMILES: COCCN[C@H]1CS(=O)(=O)C[C@@H]1S(=O)(=O)c1cccs1 [Compound D107]
fold induction at 0.5 µM (Renilla; [1]): 1.1
fold induction at 2 µM (Renilla; [1]): 1
fold induction at 10 µM (Renilla; [1]): 1.2
fold induction at 40 µM (Renilla; [1]): 1.5
fold induction at 0.5 µM (Renilla; [2]): 0.9
fold induction at 2 µM (Renilla; [2]): 1.2
fold induction at 10 µM (Renilla; [2]): 1.3
fold induction at 40 µM (Renilla; [2]): 1.8
fold induction at 0.5 µM (Renilla; [3]): 1
fold induction at 2 µM (Renilla; [3]): 1
fold induction at 10 µM (Renilla; [3]): 1.3
fold induction at 40 µM (Renilla; [3]): 2.1
fold induction at 0.5 µM (HEK293 pGL4; [4]): 1.2
fold induction at 2 µM (HEK293 pGL4; [5]): 1.5
fold induction at 10 µM (HEK293 pGL4; [6]): 2
fold induction at 40 µM (HEK293 pGL4; [7]): 2.5
fold induction at 0.5 µM (HEK293 pGL4; [8]): 1.3
fold induction at 2 µM (HEK293 pGL4; [9]): 1.4
fold induction at 10 µM (HEK293 pGL4; [10]): 1.8
fold induction at 40 µM (HEK293 pGL4; [11]): 1.4
fold induction at 0.5 µM (HEK293 pGL4; [12]): 1.1
fold induction at 2 µM (HEK293 pGL4; [13]): 1.3
fold induction at 10 µM (HEK293 pGL4; [14]): 1.7
fold induction at 40 µM (HEK293 pGL4; [15]): 2.3

Firefly F4, cmpd/DMSO (mean) (NR2F6; 0.5 uM): 1.0
Firefly F4, cmpd/DMSO (mean) (NR2F6; 2 uM): 1.4
Firefly F4, cmpd/DMSO (mean) (NR2F6; 10 uM): 1.8
Firefly F4, cmpd/DMSO (mean) (NR2F6; 40 uM): 1.3
Firefly, F4, 1% FBS, cmpd/DMSO (mean) (NR2F6; 1% FBS, 0.5 uM): 0.8
Firefly, F4, 1% FBS, cmpd/DMSO (mean) (NR2F6; 1% FBS, 2 uM): 0.8
Firefly, F4, 1% FBS, cmpd/DMSO (mean) (NR2F6; 1% FBS, 10 uM): 1.2
Firefly, F4, 1% FBS, cmpd/DMSO (mean) (NR2F6; 1% FBS, 40 uM): 0.9
Firefly, F4, 10% FBS, cmpd/DMSO (mean) (NR2F6; 10% FBS, 0.5 uM): 1.5
Firefly, F4, 10% FBS, cmpd/DMSO (mean) (NR2F6; 10% FBS, 2 uM): 0.9
Firefly, F4, 10% FBS, cmpd/DMSO (mean) (NR2F6; 10% FBS, 10 uM): 1.0
Firefly, F4, 10% FBS, cmpd/DMSO (mean) (NR2F6; 10% FBS, 40 uM): 1.0
Firefly LBD, cmpd/DMSO (mean) (NR2F6 LBD; 0.5 uM): 1.1
Firefly LBD, cmpd/DMSO (mean) (NR2F6 LBD; 2 uM): 1.1
Firefly LBD, cmpd/DMSO (mean) (NR2F6 LBD; 10 uM): 1.4
Firefly LBD, cmpd/DMSO (mean) (NR2F6 LBD; 40 uM): 1.1
SMILES: CC(=O)Nc1ccc(S(=O)(=O)[C@H]2CS(=O)(=O)C[C@@H]2NC2CC2)cc1 [Compound D133]
fold induction at 0.5 µM (Renilla; [1]): 1
fold induction at 2 µM (Renilla; [1]): 1
fold induction at 10 µM (Renilla; [1]): 1.1
fold induction at 40 µM (Renilla; [1]): 1.1
fold induction at 0.5 µM (Renilla; [2]): 1
fold induction at 2 µM (Renilla; [2]): 1
fold induction at 10 µM (Renilla; [2]): 1
fold induction at 40 µM (Renilla; [2]): 1.1
fold induction at 0.5 µM (Renilla; [3]): 0.9
fold induction at 2 µM (Renilla; [3]): 0.9
fold induction at 10 µM (Renilla; [3]): 1
fold induction at 40 µM (Renilla; [3]): 1
fold induction at 0.5 µM (HEK293 pGL4; [4]): 1.1
fold induction at 2 µM (HEK293 pGL4; [5]): 1.1
fold induction at 10 µM (HEK293 pGL4; [6]): 1.9
fold induction at 40 µM (HEK293 pGL4; [7]): 1.1
fold induction at 0.5 µM (HEK293 pGL4; [8]): 1.3
fold induction at 2 µM (HEK293 pGL4; [9]): 1.1
fold induction at 10 µM (HEK293 pGL4; [10]): 1.3
fold induction at 40 µM (HEK293 pGL4; [11]): 1
fold induction at 0.5 µM (HEK293 pGL4; [12]): 0.9
fold induction at 2 µM (HEK293 pGL4; [13]): 0.9
fold induction at 10 µM (HEK293 pGL4; [14]): 1.3
fold induction at 40 µM (HEK293 pGL4; [15]): 1.2
